Test results published in patent EP0123528B1, “Pharmaceutical composition for the treatment of hair loss” (Mortimer, Christopher Harry, Dr., priority 1983, dated 1984).
One block for each molecule: values may come before it.

Columns and labels:
common baldness in men = test: Unit Area Trichogram (hair density); assay type: in vivo; conditions: for producing hair growth in common baldness: alone: oestradiol benzoate 0.1%, medroxyprogesterone acetate 0.1%, 3,3-,5-triiodo-L-thyronine 20 pg in 3 ml of solution, or any two of the three
[1] = Hormone results during treatment; assay type: in vivo; conditions: patient, after 6 months of systemic treatment
Procedure: Initially […] began treatment with medroxyprogesterone acetate starting with 5 mg daily increasing to 40 mg daily at 6 months.
At this time the following hormone results were obtained:
After 6 months of the same dose of systemic medroxyprogesterone acetate plus Trichogen II the following results were obtained: […]

[2] = Semen analysis during treatment; assay type: in vivo, patient; conditions: after 6 months of systemic treatment
Procedure: Initially […] began treatment with medroxyprogesterone acetate starting with 5 mg daily increasing to 40 mg daily at 6 months. At this time the following hormone results were obtained: After 6 months of the same dose of systemic medroxyprogesterone acetate plus Trichogen II the following results were obtained: […]

Compound: N[C@H](Cc1cc(I)c(Oc2ccc(O)c(I)c2)c(I)c1)C(=O)O [3,3-,5-triiodo-D-thyronine free acid, 3,3-,5-Triiodo-D-thyronine free acid]
- substitute for the -L-form of 3,3-,5-triiodothyronine (common baldness in men; topical, in any concentration): not an effective substitute

Compound: N[C@@H](Cc1cc(I)c(Oc2ccc(O)c(I)c2)c(I)c1)C(=O)O [3,3-,5-triiodo-L-thyronine]
- producing hair growth in common baldness (common baldness in men; topical): not effective

- Semen analysis: Total count ([2]; patient (previous orchidopexy), n greater than 80 millions): 5 millions
- Semen analysis: Motility ([2]; patient, n greater than 60%): 10%
- Semen analysis: Abnormal forms ([2]; patient, n up to 25%): 35%
Compound: CC(=O)O[C@]1(C(C)=O)CC[C@H]2[C@@H]3C[C@H](C)C4=CC(=O)CC[C@]4(C)[C@H]3CC[C@@]21C [medroxyprogesterone acetate]
- Testosterone ([1]; 5 mg daily increasing to 40 mg daily, n 10—32): 27.0 nmol/L
- Dihydrotestosterone ([1]; 5 to 40 mg daily, n 0.7—2.7): 2.1 nmol/L
- SHBG ([1]; 5 to 40 mg daily, n 18—40): 36.0 nmol/L
- Oestradiol ([1]; 5 to 40 mg daily, n 50—180): 171.0 pmol/L
- 17 Alpha hydroxyprogesterone ([1]; n 0.6—6.0): 10.1 nmol/L
- Androstenedione ([1]; n 3.1—10.0): 4.9 nmol/L
- Dehydroepiandrosterone sulphate (DHEAS) ([1]; n 5—9): 9.4 µmol/L
- Meaningful hair density (hairs greater than 40 µm in diameter/cm^2), Frontal (common baldness in men; patient, after 6 months of systemic treatment, before treatment 215, n 232—340): 179 (n 232—340) hairs/cm^2
- Meaningful hair density (hairs greater than 40 µm in diameter/cm^2), Occipital (common baldness in men; patient, after 6 months of systemic treatment, before treatment 246, n 213—317): 271 (n 213—317) hairs/cm^2
- Total hair density, Occipital (common baldness in men; patient, after 6 months of systemic treatment, before treatment 251, n 261—356): 280 (n 261—356) hairs/cm^2
- Total hair density, Frontal (common baldness in men; patient, after 6 months of systemic treatment, before treatment 263, n 256—393): 248 (n 256—393) hairs/cm^2
- producing hair growth in common baldness (common baldness in men; topical): not effective

Compound: C[C@]12CC[C@@H]3c4ccc(OC(=O)c5ccccc5)cc4CC[C@H]3[C@@H]1CC[C@@H]2O [oestradiol benzoate]
- producing hair growth in common baldness (common baldness in men; topical): not effective
